Where two headings read alike, the source gives them in different places.
Key:
[1] = target: GDP-bound NRAS wild-type protein (Homo sapiens, UniProt P01111); assay: Binding to NRAS by surface plasmon resonance (SPR), Single Cycle Kinetics; details: for NRAS/KRAS (ratio of KD value for NRAS to KD value for KRAS) / ratio of the KD value with respect to GDP-bound NRAS wild-type protein to the KD value with respect to KRAS: SPR; for NRAS/KRAS (ratio of KD value for NRAS to KD value for KRAS): GDP-bound NRAS wild-type protein vs GDP-bound KRAS wild-type protein; for NRAS/KRAS (ratio of KD value with respect to GDP-bound NRAS wild-type protein to KD value with respect to KRAS): SPR KD ratio NRAS/KRAS, class symbols
Chain of GDP-bound NRAS wild-type protein (P01111 whole entry): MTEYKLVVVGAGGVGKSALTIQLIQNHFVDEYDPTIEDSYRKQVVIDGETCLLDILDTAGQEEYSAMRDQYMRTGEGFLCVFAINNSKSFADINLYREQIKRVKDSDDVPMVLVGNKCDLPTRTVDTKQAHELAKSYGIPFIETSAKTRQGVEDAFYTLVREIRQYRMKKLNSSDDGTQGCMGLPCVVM

[2] = target: GDP-bound KRAS wild-type protein (Homo sapiens, UniProt P01116); assay: Binding to KRAS by surface plasmon resonance (SPR), Single Cycle Kinetics
Chain of GDP-bound KRAS wild-type protein (P01116 whole entry): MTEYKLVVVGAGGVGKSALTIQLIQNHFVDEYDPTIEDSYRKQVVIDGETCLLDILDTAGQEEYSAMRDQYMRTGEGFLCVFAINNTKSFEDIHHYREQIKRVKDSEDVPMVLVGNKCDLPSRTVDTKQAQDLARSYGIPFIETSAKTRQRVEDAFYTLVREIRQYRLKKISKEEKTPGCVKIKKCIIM

[3] = tested on: human lung cancer strain NCI-H441;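 further: cell proliferation inhibition after four days measured by CellTiter-Glo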
[4] = target: GDP-bound HRAS wild-type protein (Homo sapiens, UniProt P01112); assay: Binding to HRAS by surface plasmon resonance (SPR), Single Cycle Kinetics; details: for HRAS/KRAS (ratio of KD value for HRAS to KD value for KRAS) / ratio of the KD value with respect to GDP-bound HRAS wild-type protein to the KD value with respect to KRAS: SPR; for HRAS/KRAS (ratio of KD value for HRAS to KD value for KRAS): GDP-bound HRAS wild-type protein vs GDP-bound KRAS wild-type protein; for HRAS/KRAS (ratio of KD value with respect to GDP-bound HRAS wild-type protein to KD value with respect to KRAS): SPR KD ratio HRAS/KRAS, class symbols
Chain of GDP-bound HRAS wild-type protein (P01112 whole entry): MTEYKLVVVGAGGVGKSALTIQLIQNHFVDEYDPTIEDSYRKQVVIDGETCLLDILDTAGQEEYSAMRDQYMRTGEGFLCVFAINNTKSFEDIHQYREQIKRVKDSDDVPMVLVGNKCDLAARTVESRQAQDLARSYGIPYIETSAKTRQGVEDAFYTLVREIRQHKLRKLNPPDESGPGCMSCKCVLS

[5] = SPR, Single Cycle Kinetics, 1:1 binding model, GDP-bound KRAS wild-type protein, read-out: KRAS KD
[6] = SPR Single Cycle Kinetics, GDP-bound KRAS wild-type protein, 1:1 binding model, read-out: KRAS KD
[7] = SPR, Single Cycle Kinetics, GDP-bound KRAS wild-type protein, read-out: KRAS KD
[8] = SPR, Single Cycle Kinetics, 1:1 binding model, read-out: KD value with respect to GDP-bound KRAS wild-type protein
[9] = read-out: NCI-H441 cell proliferation inhibitory activity, 50% proliferation inhibitory concentration (IC50 value), NCI-H441, four days, CellTiter-Glo

| SMILES | Kd [2, 5] [nM] | IC50 [3] [nM] | Kd [2, 6] [nM] | Kd [2, 7] [nM] | NRAS/KRAS (ratio of KD value for NRAS to KD value for KRAS) ([1]; KD ratio class) | HRAS/KRAS (ratio of KD value for HRAS to KD value for KRAS) ([4]; KD ratio class) | NRAS/KRAS (ratio of KD value with respect to GDP-bound NRAS wild-type protein to KD value with respect to KRAS) [1] | HRAS/KRAS (ratio of KD value with respect to GDP-bound HRAS wild-type protein to KD value with respect to KRAS) [4] | NRAS/KRAS (ratio of KD value for NRAS to KD value for KRAS) [1] | HRAS/KRAS (ratio of KD value for HRAS to KD value for KRAS) [4] | further results |
| --- | --- | --- | --- | --- | --- | --- | --- | --- | --- | --- | --- |
| CC[C@H](C)[C@@H]1NC(=O)[C@H](CC(C)C)N(C)C(=O)C[C@@H](C(=O)N2CCOCC2)N(C)C(=O)[C@H](C2CCCC2)N(C)C(=O)C2(CCC2)NC(=O)[C@@H]2CCCN2C(=O)[C@H](CCc2cc(F)c(C(F)(F)F)c(F)c2)NC(=O)CN(C)C(=O)[C@H](Cc2ccc(C(F)(F)F)cc2)N2C[C@H](C)[C@H](C)C[C@@H](C2=O)N(C)C(=O)[C@@H]2CCN2C1=O [PP1367] | 0.34 | 29.3 |  |  | A (a compound having 10 or more and less than 20 is denoted as A) | B (a compound having 3 or more and less than 10 is denoted as B) |  |  |  |  |  |
| CCO[C@@H]1C[C@H]2C(=O)NC3(CCC3)C(=O)N(C)[C@@H](C(CC)CC)C(=O)N(C)[C@H](C(=O)N(C)C)CC(=O)N(C)[C@@H](COC)C(=O)N[C@@H]([C@@H](C)CC)C(=O)N(C)CC(=O)N(C)[C@H]3C/C=C\CCN(C3=O)[C@@H](Cc3ccc(C(F)(F)F)cc3)C(=O)N(C)CC(=O)N[C@@H](CCc3ccc4sccc4c3)C(=O)N2C1 [PP1229] | 1.3 | 144 |  |  | A (a compound having 10 or more and less than 20 is denoted as A) | A (a compound having 10 or more and less than 20 is denoted as A) |  |  |  |  |  |
| CCO[C@@H]1C[C@H]2C(=O)NC3(CC(C)(C)C3)C(=O)N(C)[C@@H](C(CC)CC)C(=O)N(C)[C@H](C(=O)N(C)C)CC(=O)N(C)[C@@H](COC)C(=O)N[C@@H]([C@@H](C)CC)C(=O)N(C)CC(=O)N(C)[C@H]3C/C=C\CCN(C3=O)[C@@H](CC3CCC(F)(F)CC3)C(=O)N(C)CC(=O)N[C@@H](CCc3cc(F)c(C(F)(F)F)c(F)c3)C(=O)N2C1 [PP2440] |  | 20.1 |  | 0.44 |  |  |  |  | A (a compound having 10 or more and less than 20 is denoted as A) | A (a compound having 10 or more and less than 20 is denoted as A) |  |
| CCC[C@H]1C(=O)N[C@@H]([C@@H](C)CC)C(=O)N(C)CC(=O)N(C)[C@H]2C/C=C\CCN(C2=O)[C@@H](Cc2ccc(C)cc2)C(=O)N(C)CC(=O)N[C@@H](CCc2ccc(Cl)c(Cl)c2)C(=O)N2C[C@H](OC3CCC3)C[C@H]2C(=O)NC2(CC(C)(C)C2)C(=O)N(C)[C@@H](C(CC)CC)C(=O)N(C)[C@H](C(=O)N(C)C)CC(=O)N1C [PP2644] |  | 75 | 0.81 |  |  |  | AA (a compound having 20 or more is denoted as AA) | A (a compound having 10 or more and less than 20 is denoted as A) |  |  |  |
| CCC[C@H]1C(=O)N[C@@H]([C@@H](C)CC)C(=O)N2CCC[C@H]2C(=O)N(C)[C@H]2C/C=C\CCN(C2=O)[C@@H](Cc2ccc(C(F)(F)F)cc2)C(=O)N(C)CC(=O)N[C@@H](CCc2ccc(C(F)(F)F)c(OC)c2)C(=O)N2C[C@H](OCC)C[C@H]2C(=O)N(C)C2(CCC2)C(=O)N(C)[C@@H](C2CCCC2)C(=O)N(C)[C@H](C(=O)N2CCCC2)CC(=O)N1C [PP3101] |  |  |  | 0.27 |  |  |  |  | A (a compound having 10 or more and less than 20 is denoted as A) | A (a compound having 10 or more and less than 20 is denoted as A) | ratio of the KD value with respect to GDP-bound NRAS wild-type protein to the KD value with respect to KRAS [1]: A (a compound having 10 or more and less than 20 is denoted as A); Kd [2, 8]: 0.27 nM; IC50 [3, 9]: 4.9 nM; ratio of the KD value with respect to GDP-bound HRAS wild-type protein to the KD value with respect to KRAS [4]: A (a compound having 10 or more and less than 20 is denoted as A) |

The next lines start with results.

| Kd [2, 5] [nM] | IC50 [3] [nM] | Kd [2, 6] [nM] | Kd [2, 7] [nM] | SMILES | NRAS/KRAS (ratio of KD value for NRAS to KD value for KRAS) ([1]; KD ratio class) | HRAS/KRAS (ratio of KD value for HRAS to KD value for KRAS) ([4]; KD ratio class) | NRAS/KRAS (ratio of KD value with respect to GDP-bound NRAS wild-type protein to KD value with respect to KRAS) [1] | HRAS/KRAS (ratio of KD value with respect to GDP-bound HRAS wild-type protein to KD value with respect to KRAS) [4] | NRAS/KRAS (ratio of KD value for NRAS to KD value for KRAS) [1] | HRAS/KRAS (ratio of KD value for HRAS to KD value for KRAS) [4] | further results |
| --- | --- | --- | --- | --- | --- | --- | --- | --- | --- | --- | --- |
|  | 68.4 | 2.8 |  | CCC[C@H]1C(=O)N[C@@H]([C@@H](C)CC)C(=O)N(C2CC2)CC(=O)N(C)[C@H]2C/C=C\CCN(C2=O)[C@@H](Cc2ccc(C)cc2)C(=O)N(C)CC(=O)N[C@@H](CCc2ccc(Cl)c(Cl)c2)C(=O)N2C[C@H](OCC)C[C@H]2C(=O)NC2(CC(C)(C)C2)C(=O)N(C)[C@@H](CC2CCC2)C(=O)N(C)[C@H](C(=O)N(C)C)CC(=O)N1C [PP2761] |  |  | A (a compound having 10 or more and less than 20 is denoted as A) | A (a compound having 10 or more and less than 20 is denoted as A) |  |  |  |
|  | 46.3 | 1 |  | CCC[C@H]1C(=O)N[C@@H]([C@@H](C)CC)C(=O)N(C2CC2)CC(=O)N(C)[C@H]2C/C=C\CCN(C2=O)[C@@H](Cc2ccc(C)cc2)C(=O)N(C)CC(=O)N[C@@H](CCc2cc(F)c(C(F)(F)F)c(F)c2)C(=O)N2C[C@H](OCC)C[C@H]2C(=O)NC2(CC(C)(C)C2)C(=O)N(C)[C@@H](C(CC)CC)C(=O)N(C)[C@H](C(=O)N(C)C)CC(=O)N1C [PP2560] |  |  | AA (a compound having 20 or more is denoted as AA) | A (a compound having 10 or more and less than 20 is denoted as A) |  |  |  |
|  |  |  | 0.048 | CCC[C@H]1C(=O)N[C@@H]([C@@H](C)CC)C(=O)N(C)CC(=O)N(C)[C@H]2C/C=C\CCN(C2=O)[C@@H](Cc2ccc(C)cc2)C(=O)N(C)CC(=O)N[C@@H](CCc2ccc(C(F)(F)F)c(OC)c2)C(=O)N2C[C@H](OCC)C[C@H]2C(=O)N(C)C2(CCC2)C(=O)N(C)[C@@H](C2CCCC2)C(=O)N(C)[C@H](C(=O)N2CCCC2)CC(=O)N1C [PP3106, (2S,8S,12R,14S,20S,23S,27S,30S,36S,38Z)-20-cyclopentyl-12-ethoxy-8-[2-[3-methoxy-4-(trifluoromethyl)phenyl]ethyl]-4,16,19,22,26,32,35-heptamethyl-30-[(1S)-1-methylpropyl]-27-propyl-2-(p-tolylmethyl)-23-(pyrrolidine-1-carbonyl)spiro[1,4,7,10,16,19,22,26,29,32,35-undecazatricyclo[34.5.1.0^10,14]dotetracont-38-ene-17,1′-cyclobutane]-3,6,9,15,18,21,25,28,31,34,42-undecone] |  |  |  |  | A (a compound having 10 or more and less than 20 is denoted as A) | A (a compound having 10 or more and less than 20 is denoted as A) | ratio of the KD value with respect to GDP-bound NRAS wild-type protein to the KD value with respect to KRAS [1]: A (a compound having 10 or more and less than 20 is denoted as A); Kd [2, 8]: 0.048 nM; IC50 [3, 9]: 2.9 nM; ratio of the KD value with respect to GDP-bound HRAS wild-type protein to the KD value with respect to KRAS [4]: A (a compound having 10 or more and less than 20 is denoted as A) |
|  | 54.3 | 1.1 |  | CCOC[C@H]1C(=O)N[C@@H]([C@@H](C)CC)C(=O)N(C2CC2)CC(=O)N(C)[C@H]2C/C=C\CCN(C2=O)[C@@H](Cc2ccc(C)cc2)C(=O)N(C)CC(=O)N[C@@H](CCc2ccc(Cl)c(Cl)c2)C(=O)N2C[C@H](OCC)C[C@H]2C(=O)NC2(CC(C)(C)C2)C(=O)N(C)[C@@H](CC(C)(C)C)C(=O)N(C)[C@H](C(=O)N(C)C)CC(=O)N1C [PP2728] |  |  | AA (a compound having 20 or more is denoted as AA) | A (a compound having 10 or more and less than 20 is denoted as A) |  |  |  |
| 0.077 | 5.1 |  |  | CCO[C@@H]1C[C@H]2C(=O)NC3(CCCC3)C(=O)N(C)[C@@H](C3CCCC3)C(=O)N(C)[C@H](C(=O)N3CCOCC3)CC(=O)N(C)[C@@H](CC)C(=O)N[C@@H]([C@@H](C)CC)C(=O)N(C)CC(=O)N(C)[C@H]3CC[C@@H](C)CN(C3=O)[C@@H](Cc3ccc(C(F)(F)F)cc3)C(=O)N(C)CC(=O)N[C@@H](CCc3cc(F)c(C(F)(F)F)c(F)c3)C(=O)N2C1 [PP1371] | A (a compound having 10 or more and less than 20 is denoted as A) | B (a compound having 3 or more and less than 10 is denoted as B) |  |  |  |  |  |
| 0.27 | 26.8 |  |  | CCO[C@@H]1C[C@H]2C(=O)NC3(CCC3)C(=O)N(C)[C@@H](C(CC)CC)C(=O)N(C)[C@H](C(=O)N(C)C)CC(=O)N(C)[C@@H](CC3CC3)C(=O)N[C@@H]([C@@H](C)CC)C(=O)N(C)CC(=O)N(C)[C@H]3C/C=C\CCN(C3=O)[C@@H](Cc3ccc(C(F)(F)F)cc3)C(=O)N(C)CC(=O)N[C@@H](CCc3ccc(C(F)(F)F)c(OC)c3)C(=O)N2C1 [PP1211] | A (a compound having 10 or more and less than 20 is denoted as A) | B (a compound having 3 or more and less than 10 is denoted as B) |  |  |  |  |  |
|  | 15.3 |  | 0.16 | CCCOC[C@H]1C(=O)N[C@@H]([C@@H](C)CC)C(=O)N(C)CC(=O)N(C)[C@H]2C/C=C\CCN(C2=O)[C@@H](Cc2ccc(C)cc2)C(=O)N(C)CC(=O)N[C@@H](CCc2cc(F)c(C(F)(F)F)c(F)c2)C(=O)N2C[C@@H](C)C[C@H]2C(=O)NC2(CC(C)(C)C2)C(=O)N(C)[C@@H](C2CCCC2)C(=O)N(C)[C@H](C(=O)N(C)CC)CC(=O)N1C [PP2471] |  |  |  |  | A (a compound having 10 or more and less than 20 is denoted as A) | A (a compound having 10 or more and less than 20 is denoted as A) |  |

From patent US20240158446A1, “CYCLIC COMPOUND HAVING SELECTIVE INHIBITORY ACTION ON KRAS OVER HRAS AND NRAS” (CHUGAI SEIYAKU KABUSHIKI KAISHA, priority 2021, published 2024)
